Measured values published in patent US12629415B2, “Vaccine adjuvants” (THE PROVOST, FELLOWS, FOUNDATION SCHOLARS, AND THE OTHER …, priority 2018, dated 2026).
Entries after “also recorded” stand apart in the source; their conditions may differ.

Tests used:
[1] = system: Human PBMCs; assay: IL-1β ELISA on stimulated human PBMCs; assay type: cell-based; conditions: with or without LPS 100 pg/ml priming; 24 hours
Procedure: Supernatants were collected after 24 hours and IL-1β was detected by ELISA. Human PBMCs were stimulated for 24 hours with polydA:dT (5 μg/ml, 2 μg/ml or 1 μg/ml) or alum (50 μg/ml) alone or with LPS (100 pg/ml) (C & D). Supernatants were collected and IL-1β was detected by ELISA. Bovine PBMCs were cultured with polydA:dT (1 μg/ml) with or without LPS (100 pg/ml) for 16 hours (E). Cell lysates were harvested and pro-IL-1β was detected by western blot. PBMCs were stimulated with media or polydA:dT (1 μg/ml) for 6 hours. Cells were lysed and RNA was harvested and used for analysis by RT-PCR (F). Results are mean+/− SEM for 6 calves tested individually in triplicate. For human analysis, results are mean+/− SEM for 6 humans tested individually in triplicate The PPIA gene was used for normalization of gene expression.

[2] = system: mononuclear cells from cord blood, children's blood or adult blood; assay: HEK-Blue IFNα/β and TNFα assays on mononuclear cells of cord blood, children and adults; assay type: cell-based, human; conditions: transfection 24 h, 4-24 months, 2-5 years, 6-11 years
From the text: Umbilical cord blood samples were obtained from term births following normal pregnancy, labour and delivery at National Maternity Hospital (NMH), Holles St, Dublin 2. […] Venous blood from infants, children and adolescents of various ages was collected during elective surgical procedures where no indication of infection was present (such as hydrocele repair, umbilical hernia repair, onychocryptosis, orchipexy repair) in Our Lady's Children's Hospital Crumlin (OLCHC), Dublin 12. […] Volumes drawn were age and weight dependent, according to standard, approved guidelines. Ethics approval was obtained from the Ethics Committees of NMH and OLCHC and informed consent was obtained from each subject or their parent/guardian. Adult blood samples were from healthy adults, supplied by the Irish Blood Transfusion Service. • Poly(I:C), Poly(dA:dT) and cGAMP were obtained from Invivogen • Poly (dA:dT) is a repetitive synthetic double-stranded DNA sequence of poly(dA-dT)-poly(dT-dA) http://www.invivopen.com/poly-dadt-naked • Poly (I:C) comprises long strands of inosine poly(I) homopolymer annealed to strands of cytidine poly(C) homopolymer http://www.invivogen.com/polyic-hmw. • cGAMP is cyclic [G(2′,5′)pA(3′,5′)p]; Formula: […], 2Na Methodology
Isolation of mononuclear cells and monocytes—Primary PBMCs or CBMCs were isolated from healthy human blood or cord blood. Monocytes were isolated by negative selection using Monocyte Isolation Kit II (Miltenyi). Monocyte purity was assessed using CD14 staining and was routinely 85-95%. Cells were cultured at 37° C., 5% CO2, 95% air in RPMI-1640, with stable 2.5 mM L-glutamine and 0.5 mM sodium pyruvate with 10% FBS (all from Sigma-Aldrich).
Poly(I:C) (5 μg/ml) (Invivogen), Poly(dA:dT) (5 μg/ml) (Sigma-Aldrich), 2′3′ cGAMP (10 μg/ml), 5′ triphosphate double stranded RNA (5′ ppp dsRNA) (2.5 μg/ml) and HSV-60 (2 μg/ml) (all from Invivogen) were transfected into PBMCs or CBMCs using TransIT-X2 (Mirus).
Measurement of cytokines—HEK Blue TNFα/IFNα/β Assays were performed as per the manufacturer's (Invivogen) instructions using Quanti-Blue Detection Reagent. SEAP levels were determined using a spectrophotometer plate reader at 630 nm. IFNα (3425-1H-6, Mabtech) and IP-10 (DY266, R&D Systems) were detected by sandwich ELISA. IFNα ELISA used pan specific IFNα antibodies, which allows detection of IFNα subtypes 1/13, 2, 4, 5, 6, 7, 8, 10, 14, 16 and 17. BioLegend LEGENDplex™ Human Inflammation Panel (13-plex) was carried out as per manufacturer's (Biolegend) instructions to determine levels of IFNγ, IL-10, IL-12p70 and IL-23. A BD LSR Fortessa cell analyser was used to acquire samples and BioLegend LEGENDplex™ software was used for analysis.

[3] = system: bovine PBMCs; assay: Real-time PCR of gene expression in bovine PBMCs; assay type: cell-based, cattle; conditions: for IFN-α gene expression / IFN-β gene expression: vs unstimulated cells; for ISG-15 expression: after 12 hours (text), 6 hours (FIG. 23 legend)
Procedure: RNA extraction was conducted using Trizol and an RNeasy Plus Mini Kit (Qiagen Ltd). Tissue culture plates of stimulated cells were spun and supernatants were extracted while the remaining adherent cells were lysed using Trizol. Chloroform (200 μl per 1 ml of Trizol) was then added to the cell lysates and mixed vigorously before being centrifuged at 12000 g for 15 minutes at 4° C. The resulting aqueous layer of RNA was transferred to another tube containing 1 volume of ethanol. The mixture was then added to an RNeasy column and processed according to the manufacturer's instructions (Qiagen Ltd). After rigorous purification, the RNA was isolated and quantified using NanoDrop ND-1000 UV-Vis Spectrophotometer (NanoDrop Technologies Inc.). Finally the samples were stored at −80° C.
RNA was converted to cDNA using a High-Capacity cDNA Reverse transcription Kit (Applied Biosystems). Components needed for reverse transcriptase included RNA, RT 5× buffer, RNase Out, random hexamers, dNTP's and reverse transcriptase. The process was conducted under the following conditions: 25° C. for 10 minutes, 42° C. for 60 minutes, 95° C. for 3 minutes and hold at 4° C. The resulting cDNA was stored at −20° C.
Using, SYBR Green intercalating dye (Applied Biosystems Ltd), qRT-PCR was performed using Applied Biosystems 7500 Fast Real-Time PCR System. Each well on the qRT-PCR plate was comprised of SYBR Green dye, nuclease free H2O, cDNA, forward and reverse primers. Two negative controls were included to ensure no contamination was present. The cycle parameters of the process were: 95° C. for 20 seconds, 40 cycles at 95° C. for 3 seconds, 60° C. for 30 seconds followed by the dissociation steps which were: 95° C. for 15 seconds, 60° C. for 60 seconds, 95° C. for 15 seconds and 60° C. for 15 seconds. The Ct (threshold cycle) values from both the target and reference gene were used to measure the concentration of the target gene in the PCR reaction.

[4] = polydA:dT 1 μg/ml, 6 hours, listed as PolydA:dT
[5] = polydA:dT 1 μg/ml, 6 hours, listed as poly(dA:dT)
[6] = polydA:dT 1 μg/ml, 6 hours, listed as polydA:dT

poly(deoxyadenylic-thymidylic) acid [Poly(dA:dT)]
IL-1β secretion by human PBMCs [1]: only cells primed with LPS 3 h prior to transfection with polydA:dT secreted processed IL-1β; also recorded: human PBMCS did not secrete processed IL-1β
TNFα production across age groups [2]: maintenance of cord blood responsiveness to CNA was also observed for both Poly(I:C) and Poly(dA:dT)-induced TNFα production to the age of 24 months
production of type I IFN across age groups [2]: maintained throughout childhood; also recorded: maintained across all age groups
IFI-16 expression ([3]; polydA:dT 1 μg/ml transfected, 12 hours): enhanced in response to polydA:dT; also recorded: regulates IFI-16 expression; also recorded: IFI-16 expression is enhanced by polydA:dT
IL-18 expression ([3]; polydA:dT 1 μg/ml, 6 hours): enhanced by polydA:dT; also recorded: increased in response to polydA:dT after 6 hours; also recorded: can drive enhanced IL-18 expression; also recorded: increased the expression of IL-18; also recorded: robust driver of IL-1β secretion and IL-18 expression in cattle
IFN-α gene expression [3, 4]: increases type I IFN expression by bovine PBMCs; also recorded: enhanced IFN-α, IFN-β and ISG-15 expression by bovine PBMCs
IFN-β gene expression [3, 4]: increases type I IFN expression by bovine PBMCs; also recorded: enhanced IFN-α, IFN-β and ISG-15 expression by bovine PBMCs
IFN-α gene expression [3, 5]: enhanced type 1 interferon secretion
IFN-β gene expression [3, 5]: enhanced type 1 interferon secretion
IFN-α gene expression [3, 6]: enhanced after 6 hours in comparison to unstimulated cells; also recorded: increases IFN-α and IFN-β expression in bovine PBMCs
IFN-β gene expression [3, 6]: enhanced after 6 hours in comparison to unstimulated cells; also recorded: increases IFN-α and IFN-β expression in bovine PBMCs
ISG-15 expression ([3]; polydA:dT 1 μg/ml, listed as PolydA:dT): enhanced IFN-α, IFN-β and ISG-15 expression by bovine PBMCs
ISG-15 expression ([3]; polydA:dT 1 μg/ml, listed as polydA:dT): increased in response polydA:dT after 12 hours; also recorded: ISG-15 expression is increased in bovine PBMCs
